Results reported in US12649723B2, “Carbonohydrazonoyl dicyanide compounds comprising 2 or more aryl or heteroaryl connected via linker and use thereof” (KOREA INSTITUTE OF SCIENCE AND TECHNOLOGY, priority 2020, dated 2026).
pIC50: −log10 of the molar value.

Key:
[1] = molecular target: T1, tau protein (Homo sapiens, UniProt P10636); assay: Tau-BiFC cell model: inhibition of tau protein aggregation; assay type: cell-based; conditions: for remaining activity at 3 µM / remaining activity at 10 µM: 48 h, Forskolin-only group = 100% tau protein-aggregated state; for remaining activity at 3 µM: compounds marked *: measured at 3 μM, read-out: Response; for pIC50: Tau BiFC in cells, with Forskolin 30 μM, 48 hours; for remaining activity at 10 µM: compound 10 μM, BiFC fluorescence, read-out: Response (% @10 μM)
T1 construct: fused on or other part: Split fluorescent-protein halves for BiFC are fused to tau; In the published tau-BiFC line these are Venus VN173 and VC155
How it was run: (§1)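 Aggregation was induced by 30 μM Forskolin co-applied with test compound for 48 h, with screening at 1, 3, 10 μM and dose-response at 0.03–30 μM. Nuclei were stained with Hoechst (2 μg/mL) and counted against Forskolin-only wells for cytotoxicity. Inhibition came from BiFC fluorescence relative to Forskolin-only versus untreated cells, with IC50 by nonlinear regression.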

[2] = test system: Tau-BiFC cells; assay: Cell viability (cytotoxicity) in tau-BiFC cells, count of stained nuclei; assay type: cell-based; conditions: Forskolin-only group = 100% cell viability; for Cell viability: compounds marked *: measured at 3 μM; for Cell viability (% @10 μM): compound 10 μM
How it was run: as §1

[3] = molecular target: T2, CYP1A2 (Homo sapiens, UniProt P05177); assay: Inhibitory effect on CYP coenzyme activity, human liver microsomes; assay type: in vitro ADME; conditions: compound 10 μM; human liver microsomes 0.25 mg/mL; substrate phenacetin; 15 minutes
T2 construct: human liver microsomes (0.25 mg/mL); from tissue; host or cells: human liver microsomes
T2 sequence (P05177 1-516): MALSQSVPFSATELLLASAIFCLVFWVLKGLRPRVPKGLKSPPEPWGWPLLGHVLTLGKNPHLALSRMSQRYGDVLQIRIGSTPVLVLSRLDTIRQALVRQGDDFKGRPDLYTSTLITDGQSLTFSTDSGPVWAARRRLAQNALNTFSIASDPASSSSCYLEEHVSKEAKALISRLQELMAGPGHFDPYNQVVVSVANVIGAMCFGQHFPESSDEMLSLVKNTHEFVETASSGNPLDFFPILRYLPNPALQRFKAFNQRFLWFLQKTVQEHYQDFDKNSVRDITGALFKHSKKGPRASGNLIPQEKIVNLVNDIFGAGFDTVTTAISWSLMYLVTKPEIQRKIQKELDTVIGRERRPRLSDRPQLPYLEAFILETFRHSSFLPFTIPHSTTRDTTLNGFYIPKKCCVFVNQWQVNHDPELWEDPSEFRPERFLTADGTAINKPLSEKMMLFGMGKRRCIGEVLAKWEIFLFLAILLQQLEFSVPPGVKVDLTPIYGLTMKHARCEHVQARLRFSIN
Method: (§2) The inhibitory effects of the compounds prepared according to Examples 1 to 175 on CYP coenzyme activity were identified. Specifically, human liver microsomes (0.25 mg/mL), a 0.1 M phosphate buffer solution (pH 7.4), a substrate drug cocktail of five types of drug metabolism enzymes (50 μM phenacetin, 10 μM diclofenac, 100 μM S-mephenytoin, 5 μM dextromethorphan, and 2.5 μM midazolam), and the compound at a concentration of 0 μM or 10 μM were mixed and pre-cultured at 37° C. for 5 minutes, and then further cultured at 37° C. for 15 minutes together with an NADPH generation system solution added thereto. Thereafter, the reaction was terminated by adding an acetonitrile solution containing an internal standard material (terfenadine) and centrifuged for 5 minutes (14,000 rpm, 4° C.), and then a supernatant was injected into an LC-MS/MS system for simultaneous analysis of metabolites of the substrate drugs to thereby evaluate the inhibitory effects on drug metabolism.
(§3) Metabolites of each CYP coenzyme indicator drug generated through the reaction were analyzed using the Shimadzu Nexera XR system and TSQ Vantage (Thermo). In an HPLC column, Kinetex C18 (2.1 mm×100 mm, 2.6 μm, particle size; Phenomenex, USA) was used, and mobile phases were (A) distilled water containing 0.1% formic acid and (B) acetonitrile containing 0.1% formic acid, and a gradient program shown in Table 3 was applied thereto.
(§4) The generated metabolites were quantified using a multiple reaction monitoring (MRM) quantification mode, and Xcalibur (version 1.6.1) was used for data analysis. Inhibitory effects of the novel compound prepared according to the examples of the present invention on CYP coenzyme activity are shown in Table 4 below.

[4] = molecular target: T3, CYP2C19 (Homo sapiens, UniProt P33261); assay: as above; assay type: in vitro ADME; conditions: compound 10 μM; human liver microsomes 0.25 mg/mL; substrate S-mephenytoin; 15 minutes
T3 construct: human liver microsomes (0.25 mg/mL); from tissue; host or cells: human liver microsomes
Method: as §2, §3, §4

[5] = molecular target: T4, CYP2C9 (Homo sapiens, UniProt P11712); assay: as above; assay type: in vitro ADME; conditions: compound 10 μM; human liver microsomes 0.25 mg/mL; substrate diclofenac; 15 minutes
T4 construct: human liver microsomes (0.25 mg/mL); from tissue; host or cells: human liver microsomes
Method: as §2, §3, §4

[6] = molecular target: T5, CYP2D6 (Homo sapiens, UniProt P10635); assay: as above; assay type: in vitro ADME; conditions: compound 10 μM; human liver microsomes 0.25 mg/mL; substrate dextromethorphan; 15 minutes
T5 construct: human liver microsomes (0.25 mg/mL); from tissue; host or cells: human liver microsomes
Method: as §2, §3, §4

[7] = molecular target: T6, CYP3A4 (Homo sapiens, UniProt P08684); assay: as above; assay type: in vitro ADME; conditions: compound 10 μM; human liver microsomes 0.25 mg/mL; substrate midazolam; 15 minutes
T6 construct: human liver microsomes (0.25 mg/mL); from tissue; host or cells: human liver microsomes
Method: as §2, §3, §4

[8] = Liver microsome stability; assay type: in vitro ADME, human; conditions: amount of substrate remaining; compound 1 μM, 30 minutes, 37° C., NADPH
Method: (§5) The stability of liver microsomes due to the compounds prepared according to Examples 1 to 175 was confirmed. Specifically, four types of liver microsomes (human, dog, rat, and mouse, each 0.25 mg/mL), a 0.1 M phosphate buffer solution (pH 7.4), and each of the compounds at a concentration of 1 μM were mixed and pre-cultured at 37° C. for 5 minutes and further cultured at 37° C. for 30 minutes together with an NADPH generation system solution added thereto. Thereafter, the reaction was terminated by adding an acetonitrile solution containing an internal standard material (chloropropamide) and centrifuged for 5 minutes (14,000 rpm, 4° C.), and then a supernatant was injected into an LC-MS/MS system for analysis of substrate drugs to thereby evaluate metabolic stability due to 8 types of compounds.
(§6) The amount of the substrate remaining after the reaction was analyzed using the Shimadzu Nexera XR system and TSQ Vantage (Thermo). In an HPLC column, Kinetex XB-C18 (2.1 mm×100 mm, particle size of 2.6 μm; Phenomenex, USA) was used, and mobile phases were (A) distilled water containing 0.1% formic acid and (B) acetonitrile containing 0.1% formic acid. Analyst software (version 1.6.3) and Xcalibur (version 1.6.1) were used for data analysis.

[9] = Liver microsome stability; assay type: in vitro ADME, rat; conditions: amount of substrate remaining; compound 1 μM, 30 minutes, 37° C., NADPH
Method: as §5, §6

[10] = Liver microsome stability; assay type: in vitro ADME, mouse; conditions: amount of substrate remaining; compound 1 μM, 30 minutes, 37° C., NADPH
Method: as §5, §6

T3 sequence (P33261 whole entry): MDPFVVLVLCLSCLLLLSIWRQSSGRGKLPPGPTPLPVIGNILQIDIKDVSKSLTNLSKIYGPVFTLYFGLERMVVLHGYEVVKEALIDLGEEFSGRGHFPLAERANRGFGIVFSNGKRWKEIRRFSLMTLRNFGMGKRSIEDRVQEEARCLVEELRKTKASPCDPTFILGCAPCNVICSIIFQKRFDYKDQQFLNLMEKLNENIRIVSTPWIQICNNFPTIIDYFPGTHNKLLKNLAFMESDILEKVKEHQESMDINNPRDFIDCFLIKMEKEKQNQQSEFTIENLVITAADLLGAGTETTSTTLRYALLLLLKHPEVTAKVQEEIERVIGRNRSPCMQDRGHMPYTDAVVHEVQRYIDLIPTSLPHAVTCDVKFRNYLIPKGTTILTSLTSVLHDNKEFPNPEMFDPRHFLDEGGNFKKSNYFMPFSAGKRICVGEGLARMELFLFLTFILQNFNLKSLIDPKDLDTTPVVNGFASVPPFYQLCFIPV
T4 sequence (P11712 whole entry): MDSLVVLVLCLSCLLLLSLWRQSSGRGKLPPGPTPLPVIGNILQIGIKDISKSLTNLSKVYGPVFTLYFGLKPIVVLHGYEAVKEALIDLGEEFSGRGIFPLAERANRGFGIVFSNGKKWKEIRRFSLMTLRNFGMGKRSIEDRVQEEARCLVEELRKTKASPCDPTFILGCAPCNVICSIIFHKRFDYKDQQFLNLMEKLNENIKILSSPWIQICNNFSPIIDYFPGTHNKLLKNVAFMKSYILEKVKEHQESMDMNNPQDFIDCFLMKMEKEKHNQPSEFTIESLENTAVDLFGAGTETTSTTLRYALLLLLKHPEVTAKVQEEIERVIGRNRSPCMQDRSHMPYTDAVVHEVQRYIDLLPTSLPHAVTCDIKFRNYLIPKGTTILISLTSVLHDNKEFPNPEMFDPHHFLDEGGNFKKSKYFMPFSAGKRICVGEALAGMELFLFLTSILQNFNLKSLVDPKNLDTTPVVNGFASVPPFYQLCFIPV
T5 sequence (P10635 whole entry): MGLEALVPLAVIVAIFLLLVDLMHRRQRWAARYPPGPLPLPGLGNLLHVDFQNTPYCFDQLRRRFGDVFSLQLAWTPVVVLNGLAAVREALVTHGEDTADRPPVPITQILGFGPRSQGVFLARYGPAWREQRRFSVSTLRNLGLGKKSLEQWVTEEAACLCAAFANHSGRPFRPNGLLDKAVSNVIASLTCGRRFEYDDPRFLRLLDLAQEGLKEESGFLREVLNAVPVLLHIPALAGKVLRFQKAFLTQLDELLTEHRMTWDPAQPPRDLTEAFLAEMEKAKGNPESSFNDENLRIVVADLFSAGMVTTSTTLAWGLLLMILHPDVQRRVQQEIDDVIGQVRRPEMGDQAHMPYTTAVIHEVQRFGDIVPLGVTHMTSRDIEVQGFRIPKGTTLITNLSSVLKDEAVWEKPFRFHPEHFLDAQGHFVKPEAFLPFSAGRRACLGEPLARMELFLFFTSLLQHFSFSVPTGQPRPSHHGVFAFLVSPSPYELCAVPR
T1 sequence (P10636 2-441 isoform P10636-8 limits assumed): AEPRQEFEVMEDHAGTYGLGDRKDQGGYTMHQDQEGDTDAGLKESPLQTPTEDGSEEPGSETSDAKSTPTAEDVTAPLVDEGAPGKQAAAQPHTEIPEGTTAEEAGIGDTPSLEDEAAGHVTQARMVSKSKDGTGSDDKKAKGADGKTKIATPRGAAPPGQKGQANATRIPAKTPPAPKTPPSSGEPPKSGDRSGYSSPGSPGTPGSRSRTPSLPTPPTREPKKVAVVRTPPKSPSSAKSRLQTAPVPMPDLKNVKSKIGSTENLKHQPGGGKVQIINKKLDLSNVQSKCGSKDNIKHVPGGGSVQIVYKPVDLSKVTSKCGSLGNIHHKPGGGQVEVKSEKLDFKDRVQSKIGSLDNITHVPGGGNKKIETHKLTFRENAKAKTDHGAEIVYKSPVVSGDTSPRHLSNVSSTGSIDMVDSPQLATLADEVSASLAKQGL
T6 sequence (P08684 whole entry): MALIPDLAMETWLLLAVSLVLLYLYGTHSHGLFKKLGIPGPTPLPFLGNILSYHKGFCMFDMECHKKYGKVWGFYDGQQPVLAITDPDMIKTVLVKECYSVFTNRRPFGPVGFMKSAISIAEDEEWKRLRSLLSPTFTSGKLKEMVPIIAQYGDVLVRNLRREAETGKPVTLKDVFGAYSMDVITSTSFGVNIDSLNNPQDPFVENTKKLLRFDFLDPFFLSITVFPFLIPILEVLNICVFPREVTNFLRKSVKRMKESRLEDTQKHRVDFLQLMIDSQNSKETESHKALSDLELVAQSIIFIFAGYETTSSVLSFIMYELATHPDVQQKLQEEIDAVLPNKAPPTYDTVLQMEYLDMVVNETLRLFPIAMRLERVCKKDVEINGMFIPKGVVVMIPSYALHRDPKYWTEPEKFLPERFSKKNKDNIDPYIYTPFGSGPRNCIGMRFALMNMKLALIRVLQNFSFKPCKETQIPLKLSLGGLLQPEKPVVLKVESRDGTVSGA

SMILES	remaining activity at 3 µM [1]	Cell viability [2]	CYP1A2 [3]	CYP2C19 [4]	CYP2C9 [5]	CYP2D6 [6]	CYP3A4 [7]	Human (%) [8]	Rat (%) [9]	Mouse (%) [10]	pIC50 [1]	remaining activity at 10 µM [1]	Cell viability (% @10 μM) [2]
Cc1cc(NN=C(C#N)C#N)ccc1OCc1ncccn1 [Compound 143, (3-methyl-4-(pyrimidin-2-ylmethoxy)phenyl)carbonohydrazonoyl dicyanide]	11%	125%	95.9	>100	>100	>100	90.3	78.3%	57.6%	50%	–	–	–
COc1cc(NN=C(C#N)C#N)ccc1OCc1cnccn1 [Compound 159, (3-methoxy-4-(pyrazin-2-ylmethoxy)phenyl)carbonohydrazonoyl dicyanide]	-40%	114%	42.4	88	54.7	86.1	82.1	–	–	–	8.15	–	–
Cc1ccc(C(=O)Nc2ccc(NN=C(C#N)C#N)cn2)cc1 [Compound 23, (6-(4-methylbenzamido)pyridin-3-yl)carbonohydrazonoyl dicyanide]	–	–	85	82.5	40.6	>100	83.3	–	–	–	6.89	0%	114.2%
COc1cc(NN=C(C#N)C#N)ccc1OCc1ccc(C)cc1 [Compound 154, (3-methoxy-4-(4-methylbenzyloxy)phenyl)carbonohydrazonoyl dicyanide]	-52%	106%	79.1	76.3	26.6	81.7	72.5	–	–	–	7.49	–	–
Cc1cnc(COc2ccc(NN=C(C#N)C#N)cc2)cn1 [Compound 138, (4-((5-methylpyrazin-2-yl)methoxy)phenyl)carbonohydrazonoyl dicyanide]	15%	133%	97.4	>100	92.5	92.7	89.4	–	–	–	–	–	–
N#CC(C#N)=NNc1ccc(OCc2cccnc2)cc1 [Compound 124, (4-(pyridin-3-ylmethoxy)phenyl)carbonohydrazonoyl dicyanide]	–	–	23.4	69.9	4.4	46.6	37.5	–	–	–	6.21	0%	140.9%
COc1cc(NN=C(C#N)C#N)ccc1OCc1cccnc1 [Compound 160, (3-methoxy-4-(pyridin-3-ylmethoxy)phenyl)carbonohydrazonoyl dicyanide]	-33%	111%	5.8	68.5	6.5	59.7	17.9	–	–	–	8.15	–	–
COc1cc(NN=C(C#N)C#N)ccc1OCc1cnc(C)cn1 [Compound 162, (3-methoxy-4-((5-methylpyrazin-2-yl)methoxy)phenyl)carbonohydrazonoyl dicyanide]	-25%	115%	79.8	75.9	73.5	70.3	73.3	–	–	–	7.31	–	–
CC(Oc1ccc(NN=C(C#N)C#N)cc1)c1cccnc1 (stereo not shown) [Compound 140, (4-(1-(pyridin-3-yl)ethoxy)phenyl)carbonohydrazonoyl Dicyanide]	18%	135%	96.7	>100	11.7	69.6	30.8	–	–	–	–	–	–
COc1cc(NN=C(C#N)C#N)ccc1OCc1ccccc1 [Compound 153, (4-(benzyloxy)-3-methoxyphenyl)carbonohydrazonoyl dicyanide]	-43%	122%	67.9	100	44.1	90.7	98.9	–	–	–	7.43	–	–
N#CC(C#N)=NNc1ccc(OCc2cn[nH]c2)cc1 [Compound 137, (4-((1H-pyrazol-4-yl)methoxy)phenyl)carbonohydrazonoyl dicyanide]	31%	129%	>100	>100	37	>100	84.8	–	–	–	–	–	–
N#CC(C#N)=NNc1ccc(OCc2ncccn2)cc1 [Compound 136, (4-(pyrimidin-2-ylmethoxy)phenyl)carbonohydrazonoyl dicyanide]	–	–	80.3	76.5	70	94.4	88.9	–	–	–	5.84	0%	95.7%
Cc1cc(NN=C(C#N)C#N)ccc1OCc1cc[nH]n1 [Compound 151, (4-((1H-pyrazol-3-yl)methoxy)-3-methylphenyl)carbonohydrazonoyl dicyanide]	-32%	126%	51.8	>100	19.4	94.8	88	–	–	–	7.66	–	–
